± gives the standard deviation of the averaged measurements.
Key:
Assay in all cases: level (log10 ratio to DMSO vehicle control); higher = higher biomarker level / cell amount than vehicle control
Conditions in all cases: in DMSO
[1] = compound: O=C(O)C(F)(F)C(F)(F)C(F)(F)F [Perfluorobutanoic acid]
Procedure: (§1)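 BioMAP Diversity Plus panel of 12 human primary cell co-culture systems (3C, 4H, LPS, SAg, BT, BF4T, BE3C, CASM3C, HDF3CGF, KF3CT, MyoF, Mphg). Compounds were added 1 h before stimulation and left for 24 h (MyoF 48 h; BT 72 h for soluble read-outs or 6 d for IgG). Biomarkers were read by ELISA, cytotoxicity by SRB, PBMC viability and proliferation by Alamar Blue. Each well value was divided by the mean of 8 DMSO control wells on the same plate and log10 transformed; duplicate blinded samples were tested at 4 concentrations.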

[2] = compound: O=S(=O)(O)C(F)(F)C(F)(F)C(F)(F)C(F)(F)C(F)(F)C(F)(F)F [Perfluorohexanesulfonic acid]
Procedure: as §1

[3] = compound: O=C(O)C(F)(F)C(F)(F)OC(F)(F)F [Perfluoro-3-methoxypropanoic acid]
Procedure: as §1

[4] = compound: FC(F)(F)C(F)(F)C(F)(F)C(F)(F)C(F)(F)C(F)(F)I [Perfluoro-1-iodohexane]
Procedure: as §1

[5] = compound: OCC(F)(F)OC(F)(F)C(F)(F)OC(F)(F)CO [1H,1H,8H,8H-Perfluoro-3,6-dioxaoctane-1,8-diol]
Procedure: as §1

[6] = compound: FC(F)C(F)(F)COCC1CO1 [((2,2,3,3-Tetrafluoropropoxy)methyl)oxirane]
Procedure: as §1

[7] = compound: FC(F)(F)C(F)(C(F)(F)F)C(F)(F)C(F)(F)CC1CO1 [3-(Perfluoro-3-methylbutyl)-1,2-propenoxide]
Procedure: as §1

Test System | level (log10) ([1]; 6700 nM) | level (log10) ([1]; 20000 nM) | level (log10) ([1]; 60000 nM) | level (log10) ([2]; 6700 nM) | level (log10) ([2]; 20000 nM) | level (log10) ([2]; 60000 nM) | level (log10) ([3]; 6700 nM) | level (log10) ([3]; 20000 nM) | level (log10) ([3]; 60000 nM) | level (log10) ([4]; 6700 nM) | level (log10) ([4]; 20000 nM) | level (log10) ([4]; 60000 nM) | level (log10) ([5]; 6700 nM) | level (log10) ([5]; 20000 nM) | level (log10) ([5]; 60000 nM) | level (log10) ([6]; 6700 nM) | level (log10) ([6]; 20000 nM) | level (log10) ([6]; 60000 nM) | level (log10) ([7]; 6700 nM) | level (log10) ([7]; 20000 nM)
3C:CD62E/E-Selectin | -0.0155 ± 0.011 | 0.0075 ± 0.012 | -0.0185 ± 0.0035 | -0.0075 ± 0.011 | 0.012 ± 0.0042 | 0.0685 ± 0.018 | 0.0015 ± 0.016 | -0.0155 ± 0.016 | 0.0005 ± 0.0078 | -0.0025 ± 0.00071 | -0.0165 ± 0.0035 | -0.0025 ± 0.029 | 0.0085 ± 0.0035 | 0.003 | -0.003 ± 0.0085 | 0.0085 ± 0.0021 | 0.0105 ± 0.03 | 0.003 ± 0.047 | -0.0215 ± 0.0078 | -0.0115 ± 0.013
lMphg:SRB-Mphg | -0.059 ± 0.054 | -0.0275 ± 0.18 | 0.0175 ± 0.17 | 0.0015 ± 0.074 | 0.013 ± 0.0071 | 0.0255 ± 0.018 | -0.007 ± 0.02 | -0.0165 ± 0.019 | -0.022 ± 0.025 | 0.002 ± 0.0057 | -0.006 ± 0.0028 | 0.0025 ± 0.029 | -0.015 ± 0.033 | 0.0175 ± 0.023 | 0.0455 ± 0.077 | 0.0075 ± 0.016 | 0.021 ± 0.025 | 0.02 ± 0.033 | 0.0005 ± 0.0092 | 0.0075 ± 0.0021
3C:CD54/ICAM-1 | -0.0185 ± 0.019 | -0.029 ± 0.017 | -0.03 ± 0.024 | -0.002 ± 0.014 | -0.008 ± 0.0042 | 0.005 ± 0.0099 | -0.001 ± 0.021 | -0.034 ± 0.0028 | -0.0055 ± 0.029 | 0 ± 0.0057 | 0.0025 ± 0.0078 | 0.012 ± 0.0014 | -0.0015 ± 0.016 | -0.0005 ± 0.0064 | -0.0035 ± 0.011 | -0.008 ± 0.034 | -0.017 ± 0.025 | -0.002 ± 0.0099 | -0.0055 ± 0.00071 | -0.0025 ± 0.0064
HDF3CGF:CXCL8/IL-8 | -0.002 ± 0.0014 | -0.004 ± 0.0085 | 0.0015 ± 0.0021 | 0.0045 ± 0.013 | 0.0035 ± 0.015 | 0.0065 ± 0.016 | 0.0045 ± 0.0064 | 0.0125 ± 0.0035 | 0.003 ± 0.017 | -0.0055 ± 0.0021 | -0.002 ± 0.0057 | -0.024 ± 0.037 | 0.0115 ± 0.023 | 0.009 ± 0.024 | 0.015 ± 0.028 | -0.0145 ± 0.016 | -0.004 ± 0.0014 | 0.005 ± 0.0085 | 0.001 ± 0.013 | 0.006 ± 0.0028
MyoF:alpha-SM Actin | 0.006 ± 0.037 | 0.003 ± 0.031 | 0.024 ± 0.058 | 0.012 ± 0.0071 | 0.006 ± 0.021 | 0.008 ± 0.031 | 0.0015 ± 0.00071 | 0.011 ± 0.035 | 0.039 ± 0.0028 | -0.073 ± 0.021 | -0.173 ± 0.086 | -0.38 ± 0.0092 | 0.003 ± 0.0057 | 0.013 ± 0.017 | 0.004 ± 0.018 | -0.0185 ± 0.019 | 0.0015 ± 0.022 | -0.0075 ± 0.03 | -0.009 ± 0.028 | -0.0295 ± 0.0064
KF3CT:MMP-9 | -0.01 ± 0.021 | -0.0185 ± 0.019 | 0.0005 ± 0.013 | 0.0095 ± 0.0064 | 0.028 ± 0.0014 | 0.027 ± 0.0057 | -0.002 ± 0.0085 | 0.001 ± 0.0071 | 0.01 ± 0.014 | -0.0225 ± 0.0064 | -0.0225 ± 0.0092 | -0.044 ± 0.0099 | -0.0005 ± 0.00071 | 0.0085 ± 0.011 | 0.0265 ± 0.0078 | 0.0085 ± 0.0064 | -0.005 ± 0.011 | 0.012 ± 0.011 | -0.016 ± 0.03 | -0.0265 ± 0.039
CASM3C:LDLR | -0.013 ± 0.028 | -0.018 ± 0.02 | 0.0095 ± 0.015 | -0.014 ± 0.0042 | -0.0055 ± 0.0035 | 0.0155 ± 0.039 | 0.0105 ± 0.016 | 0.01 ± 0.028 | 0.013 ± 0.013 | -0.008 ± 0.0057 | 0.0155 ± 0.016 | 0.005 ± 0.028 | 0.005 ± 0.0014 | 0.0055 ± 0.019 | 0.0235 ± 0.039 | -0.0165 ± 0.021 | -0.02 ± 0.0042 | 0.007 ± 0.024 | -0.012 ± 0.017 | -0.002 ± 0.011
MyoF:MMP-1 | -0.027 ± 0.0028 | -0.0135 ± 0.016 | -0.0005 ± 0.04 | -0.029 ± 0.0085 | -0.012 | -0.002 ± 0.0028 | -0.0135 ± 0.0064 | 0.0055 ± 0.011 | 0.0105 ± 0.043 | 0.036 ± 0.0071 | 0.451 ± 0.19 | 0.661 ± 0.0028 | -0.022 ± 0.028 | -0.0115 ± 0.011 | 0.024 ± 0.058 | 0.0115 ± 0.0035 | -0.031 ± 0.018 | 0.0045 ± 0.005 | -0.007 ± 0.0085 | -0.014 ± 0.0057
CASM3C:CD106/VCAM-1 | -0.007 ± 0.016 | -0.006 ± 0.0014 | -0.039 ± 0.018 | -0.0145 ± 0.023 | -0.0175 ± 0.016 | -0.047 ± 0.024 | -0.0155 ± 0.013 | -0.03 ± 0.0071 | 0.012 ± 0.02 | 0.003 ± 0.017 | -0.003 ± 0.025 | -0.023 ± 0.041 | 0.0125 ± 0.0078 | -0.005 ± 0.0028 | 0.0015 ± 0.0035 | 0.0035 ± 0.022 | -0.012 ± 0.037 | 0.026 ± 0.033 | -0.022 ± 0.014 | -0.0145 ± 0.019
HDF3CGF:M-CSF | 0.0025 ± 0.012 | 0.0055 ± 0.005 | 0.0035 ± 0.00071 | 0.001 ± 0.0085 | -0.012 ± 0.0028 | 0.0015 ± 0.00071 | -0.005 ± 0.0085 | -0.0035 ± 0.0021 | -0.005 ± 0.0085 | 0.0155 ± 0.019 | 0.024 ± 0.0028 | -0.021 ± 0.034 | -0.0025 ± 0.0078 | -0.01 ± 0.0071 | 0.01 ± 0.0099 | 0.009 | -0.001 ± 0.033 | -0.001 ± 0.013 | -0.0115 ± 0.018 | -0.0145 ± 0.012
HDF3CGF:Proliferation 72hr | 0.01 ± 0.054 | 0.0145 ± 0.0021 | 0.0285 ± 0.029 | 0.054 ± 0.035 | 0.072 ± 0.051 | 0.107 ± 0.024 | -0.028 ± 0.0085 | 0.0125 ± 0.016 | 0.0225 ± 0.023 | -0.0315 ± 0.019 | -0.028 ± 0.0014 | -0.468 ± 0.57 | -0.001 ± 0.031 | 0.0325 ± 0.044 | -0.053 ± 0.031 | -0.054 ± 0.0057 | -0.023 ± 0.0042 | -0.099 ± 0.0014 | 0 ± 0.034 | 0.0055 ± 0.0078
CASM3C:M-CSF | -0.0095 ± 0.0064 | -0.0205 ± 0.013 | 0.0275 ± 0.063 | -0.007 ± 0.028 | -0.012 ± 0.014 | 0.0305 ± 0.00071 | -0.001 ± 0.011 | -0.001 ± 0.03 | 0.031 ± 0.0071 | -0.0125 ± 0.025 | 0.0055 ± 0.032 | 0.0085 ± 0.043 | -0.014 ± 0.0014 | -0.0105 ± 0.005 | 0.0115 ± 0.0092 | -0.0115 ± 0.021 | -0.029 ± 0.0014 | -0.0025 ± 0.084 | -0.0175 ± 0.0021 | 0.008 ± 0.042
CASM3C:PAI-I | -0.002 ± 0.0099 | -0.003 ± 0.018 | -0.0005 ± 0.011 | 0.001 ± 0.013 | 0.002 ± 0.0028 | 0.006 | 0.0015 ± 0.022 | 0.004 ± 0.013 | 0.0095 ± 0.0078 | -0.003 ± 0.0071 | -0.007 ± 0.0014 | -0.003 ± 0.0028 | 0.006 ± 0.0028 | 0 ± 0.0028 | 0.011 ± 0.017 | -0.0035 ± 0.0021 | -0.001 ± 0.011 | 0.0065 ± 0.011 | -0.0025 ± 0.0021 | 0.0045 ± 0.011
